Laboratory results taken from ChEMBL document CHEMBL4354803, “Synthesis and biological activity of structurally diverse phthalazine derivatives: A systematic review” (Bioorg Med Chem, 2019).

System: Mus musculus
Assay: Anticonvulsant activity in ip dosed Kunming mouse assessed as protection against 50 mA current-induced seizure measured after 0.5 hrs by maximal electroshock seizure test
Format: functional

FC(F)(F)c1cccc(COc2nn3cnnc3c3ccccc23)c1
ED50: 9.3 mg/kg
